Experimental findings from PubChem BioAssay AID1897 (NMMLSC, 2009) are described below.

Activity calls are given as the source filed them. The rule behind the calls is not given here. Some results are limits rather than exact numbers.

Mitogen-activated protein kinase kinase kinase 2 (Homo sapiens) + Dual specificity mitogen-activated protein kinase kinase 5 (Homo sapiens), sequence (Q13163 whole entry, looked up): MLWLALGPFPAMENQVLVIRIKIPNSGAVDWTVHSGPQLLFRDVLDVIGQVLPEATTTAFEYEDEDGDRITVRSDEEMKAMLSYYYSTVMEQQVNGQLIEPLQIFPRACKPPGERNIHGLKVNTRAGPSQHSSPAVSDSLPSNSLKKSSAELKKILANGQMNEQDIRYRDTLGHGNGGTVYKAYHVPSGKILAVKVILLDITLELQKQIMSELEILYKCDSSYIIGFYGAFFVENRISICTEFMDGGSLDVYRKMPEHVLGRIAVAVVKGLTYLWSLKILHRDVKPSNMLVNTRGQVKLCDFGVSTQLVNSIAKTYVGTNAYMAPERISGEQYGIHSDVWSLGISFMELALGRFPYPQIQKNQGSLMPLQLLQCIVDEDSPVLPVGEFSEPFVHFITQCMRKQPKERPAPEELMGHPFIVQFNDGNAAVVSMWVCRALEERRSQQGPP
Mitogen-activated protein kinase kinase kinase 2 (Homo sapiens) + Dual specificity mitogen-activated protein kinase kinase 5 (Homo sapiens), sequence (Q9Y2U5 whole entry, looked up): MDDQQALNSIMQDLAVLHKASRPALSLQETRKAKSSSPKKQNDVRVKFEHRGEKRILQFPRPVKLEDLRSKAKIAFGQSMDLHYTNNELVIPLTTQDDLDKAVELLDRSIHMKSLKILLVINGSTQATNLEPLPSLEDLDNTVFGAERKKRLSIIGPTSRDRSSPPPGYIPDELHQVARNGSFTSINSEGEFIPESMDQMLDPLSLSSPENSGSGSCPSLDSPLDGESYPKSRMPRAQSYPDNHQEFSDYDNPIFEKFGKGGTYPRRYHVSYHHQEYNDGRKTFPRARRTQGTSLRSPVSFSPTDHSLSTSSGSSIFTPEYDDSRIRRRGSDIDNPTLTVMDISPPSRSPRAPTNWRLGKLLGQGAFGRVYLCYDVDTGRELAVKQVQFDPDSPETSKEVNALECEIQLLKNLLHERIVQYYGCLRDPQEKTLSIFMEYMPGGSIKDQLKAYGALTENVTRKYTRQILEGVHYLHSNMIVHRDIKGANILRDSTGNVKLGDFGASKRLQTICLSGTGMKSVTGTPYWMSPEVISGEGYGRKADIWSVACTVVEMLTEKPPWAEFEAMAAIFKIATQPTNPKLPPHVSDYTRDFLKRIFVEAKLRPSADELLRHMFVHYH

The first experiment addresses Mitogen-activated protein kinase kinase kinase 2 (Homo sapiens) + Dual specificity mitogen-activated protein kinase kinase 5 (Homo sapiens) (UniProt Q9Y2U5+Q13163). In words: inhibitors of MEK5 binding to MEKK2, dose response, biochemical, bead multiplex flow cytometry, wildtype (AID 1897). Conditions: MEK5-MEKK2 PB1 binding. In general terms: In flow cytometry, cells or beads pass a laser one at a time.
In general, EC50 refers to the concentration at which the effect is half-maximal. Take `C#CCOCCOCCOCCNc1nc(N2CCN(C(=O)[C@H](Cc3ccc(O)cc3)n3cc([C@@H](N)C(C)CC)nn3)CC2)nc(N2CCN(C(=O)[C@H](Cc3cc4ccccc4[nH]3)n3cc([C@@H](N)Cc4ccc(O)cc4)nn3)CC2)n1` (stereo not given in full): the EC50 was 12.5 µM.
Same read-out and setting: with `CC(C)N=c1cc2n(-c3ccc(Cl)cc3)c3ccccc3nc-2cc1Nc1ccc(Cl)cc1` the figure was > 30 µM (inactive).
On the same count and under the same terms, as for `CC[C@@H](C)[C@H](CNC)NC[C@@H](Cc1cccc2ccccc12)NCCc1cccc(C(F)(F)F)c1`, the figure is 2.03 µM; as for `CCCCn1c(O)c(/C=C/C=C/C=Nc2ccccc2)sc1=S`, 1.12 µM; as for `CC[n+]1c(/C=C/C=C/N(C(C)=O)c2ccccc2)sc2ccccc21`, > 30 µM (inactive).
With `CCCN(CCC)CCNC(=O)c1cc2c(-c3ccc(Cl)cc3)nn(C)c2s1`, the EC50 is 15.1 µM.
As for `CCCCCCCCCCOC(=O)Cn1c(COc2cccc(C)c2)[n+](C)c2ccccc21`, the EC50 is > 30 µM (inactive).
Turning to `C=CC#CC[N+]1(CC#Cc2ccccc2)CCOCC1`, the EC50 is > 30 µM (inactive).
Take `CCC(/C=C1\Sc2ccc(OC)cc2N1CCO)=C\c1sc2ccc(OC)cc2[n+]1CCO`: the EC50 was 0.87 µM.
On to `CCOC(=O)C1=C(c2ccccc2)NC(N)=NC1c1ccc(OCc2ccc(C(=O)OC)cc2)cc1` (stereo not given), for which the EC50 was > 30 µM (inactive).
The same measure, in the same setting: with `CCCCCc1cc(=O)oc2c(C(CCN3CCCC(C)C3)c3ccc4c(c3)OCO4)c(OC)cc(OC)c12` (stereo not given) the figure was > 30 µM (inactive); with `Cc1cc2ccccc2n1CCNC(=O)c1cccs1`, 14.6 µM.
The same measure, in the same setting: as for `CCN(CC)CCNC(=O)c1ccc(NC(=O)c2cn(-c3ccccc3)nc2-c2cccs2)cc1`, the figure is 5.94 µM; as for `CC(C)n1cc(CN2CCC(C(=O)Nc3cccc(-c4cccc(Cl)c4)c3)CC2)cn1`, > 30 µM (inactive).
On the same count and under the same terms, as for `CNc1nc(-c2c[nH]c3ccccc23)cs1`, the figure is > 30 µM (inactive).
Regarding `CCOC(=O)C1=C(c2ccccc2)NC(N)=NC1c1ccc(OCc2ccc(Cl)cc2)c(OC)c1` (stereo not given), the EC50 is 0.58 µM.
Still for that read-out and setting: as for `CCC(/C=C1\Sc2ccc(OC)cc2N1CC)=C\c1sc2ccc(OC)cc2[n+]1CCCS(=O)(=O)[O-]`, the figure is 4.49 µM; as for `COc1ccc(C2NCCc3c2[nH]c2ccccc32)cc1CN1CCc2cc(OC)c(OC)cc2C1C` (stereo not given), 10.5 µM; as for `Cc1ccc(-c2c[n+](CC(=O)Nc3nc(-c4ccc(F)cc4)cs3)c3n2CCC3)cc1`, 9.91 µM.
Consider `CN1C(=O)/C(=C\c2ccc(-c3ccccc3)o2)SC1=S`, for which the concentration for a half-maximal effect (EC50) is 3.51 µM.
Take `CN(C)c1ccc(NC(=O)CN2CCC(O)(c3ccccc3)CC2)cc1`: the EC50 is > 30 µM (inactive).
Same read-out and setting: as for `CCn1cc(C(=O)O)c(=O)c2cc(F)c(N3CCN(C(=S)NC(=O)c4ccc(Br)cc4)CC3)cc21`, the figure is > 30 µM (inactive); as for `CCc1ccc(Nc2n[n+](-c3ccccc3)c(-c3cc(OC)c(OC)cc3Br)s2)cc1`, 5.06 µM; as for `Cc1ccnc(NC(=O)C2(c3cccs3)CCOCC2)c1`, > 30 µM (inactive).
Still for that read-out and setting: with `C#CCOCCOCCOCCNc1nc(N2CCN(C(=O)[C@H](Cc3cc4ccccc4[nH]3)n3cc([C@@H](N)CC(C)C)nn3)CC2)nc(N2CCN(C(=O)[C@H](Cc3cc4ccccc4[nH]3)n3cc([C@@H](N)CC(C)C)nn3)CC2)n1` the figure was > 30 µM (inactive); with `CCN1/C(=C/C(C)=C/c2sc3ccccc3[n+]2CC)Sc2ccccc21`, 0.53 µM.
Same read-out and setting: with `CCc1ccc(Nc2n[n+](-c3ccccc3)c(-c3ccc(OC)c(Br)c3)s2)cc1` the figure was 2.85 µM; with `Nc1ccc(N)c(C(=O)O)c1`, 3.78 µM; with `Cc1ccccc1OCC(O)CNC1CCC(NCC(O)COc2ccccc2C)CC1` (stereo not given), > 30 µM (inactive).
Take `FC(F)(F)c1cccc(NC(=S)N(CCCN2CCCC2)Cc2cccn2Cc2ccc(Cl)cc2)c1`: the EC50 was 5.19 µM.
Still for that read-out and setting: with `CN(C)CCNc1ncnc2c1sc1nc(-c3ccccc3)c3c(c12)CCCC3` the figure was 3.37 µM; with `COc1ccc(N2CC(C(=O)Nc3nnc(SCc4ccccn4)s3)CC2=O)cc1` (stereo not given), > 30 µM (inactive); with `CN1CCN(CC(=O)N2CCn3c4c(c5cc(C6CCCCC6)ccc53)CCCC42)CC1` (stereo not given), > 30 µM (inactive).
In the case of `NC(N)=N/N=C/c1ccc(OCc2ccc(Cl)cc2Cl)cc1`, the concentration for a half-maximal effect (EC50) is 1.91 µM.
Same read-out and setting: as for `CCOC(=O)C(C(=O)OCC)c1cc(Br)c2noc3c2c1C(=O)c1ccccc1-3`, the figure is 2.82 µM; as for `CCOc1cccc2sc(N(CCCN(C)C)C(=O)c3ccc(S(=O)(=O)N4CCc5ccccc5C4)cc3)nc12`, 13.2 µM; as for `COc1ccc2nc(C)cc(N/N=C/c3ccc(F)cc3)c2c1`, > 30 µM (inactive).
Still for that read-out and setting: with `CCCCCCOc1ccc(/C(C)=N/NC2=NCCN2)cc1[N+](=O)[O-]` the figure was 9.29 µM; with `CCCCCc1cc(=O)oc2c(C(CCN3CCCC3)c3ccc(N(C)C)cc3)c(OC)cc(OC)c12` (stereo not given), 20.9 µM; with `Cc1ccc(CN2CCSc3ccc(C(=O)NC4CCN(Cc5ccccc5)CC4)cc32)cc1`, 5.13 µM.
As to `O=C(Nc1ccc(Cl)cn1)c1ccc2c(Cl)c3c(nc2c1)CCC3`, the EC50 was > 30 µM (inactive).
Same read-out and setting: as for `CCC(=C/c1sc2ccc3ccccc3c2[n+]1C)/C=C1\Sc2ccc3ccccc3c2N1C`, the figure is 0.14 µM; as for `COc1ccc(-n2nc3c(N)n[nH]c3cc2=O)cc1`, 1.48 µM; as for `CCCCCCCCCCOC(=O)Cn1c(COc2ccc(OC)cc2)[n+](C)c2ccccc21`, > 30 µM (inactive).
Regarding `Cc1nc(N)sc1-c1csc(Nc2ncccn2)n1`, the EC50 is > 30 µM (inactive).
On the same count and under the same terms, with `CN1C(=CC=C2C=C(I)C(=O)C(I)=C2)C(C)(C)c2ccccc21` the figure was 9.16 µM; with `O=C(CCCC(=O)N(CC(=O)NC1CCCC1)C1CCCC1)Nc1ccccn1`, > 30 µM (inactive).
Same read-out and setting: as for `COc1ccc(CSc2n[nH]c(C)n2)cc1[N+](=O)[O-]`, the figure is > 30 µM (inactive); as for `C#CCOCCOCCOCCNc1nc(N2CCN(C(=O)[C@H](Cc3cc4ccccc4[nH]3)n3cc([C@@H](N)C(C)CC)nn3)CC2)nc(N2CCN(C(=O)[C@H](Cc3cc4ccccc4[nH]3)n3cc([C@@H](N)CC(C)C)nn3)CC2)n1` (stereo not given in full), 2.69 µM.
The same measure, in the same setting: as for `COCCNC(=O)CN(c1cc(Cl)ccc1OC)S(=O)(=O)c1ccc(C)c([N+](=O)[O-])c1`, the figure is > 30 µM (inactive); as for `CCN1CCN(Cc2ccc(NC(=O)c3cc(NC(=O)c4cncc(-c5cccs5)c4)cc(OC)c3)cc2C(F)(F)F)CC1`, > 30 µM (inactive); as for `CCN(CC)CCOC(=O)c1ccc(N/C=C(/C#N)c2nc(-c3cc4ccccc4oc3=O)cs2)cc1`, 4.88 µM.
Regarding `O=[N+]([O-])c1ccc(/C=C/C2=NN(c3ccccc3)C(c3ccco3)C2)o1` (stereo not given), the EC50 is > 30 µM (inactive).
On the same count and under the same terms, with `CS(=O)(=O)N1N=C(c2ccccc2)CC1c1ccc2c(c1)OCO2` (stereo not given) the figure was > 30 µM (inactive); with `CN(C)CCCN(C(=O)c1ccc2c(c1)CCCC2)c1nc2ccc(Cl)cc2s1`, > 30 µM (inactive); with `CCOC(=O)c1c(-c2ccc(-c3ccccc3)cc2)csc1NC(=O)CNCCN(C)C`, 1.55 µM.
The same measure, in the same setting: as for `CCCCCc1cc(=O)oc2c(C(CCN3CCCC(C)C3)c3ccc(OC)cc3)c(OC)cc(OC)c12` (stereo not given), the figure is 9.57 µM; as for `O=C(OCC1O[C@@H](OC(=O)c2cc(O)c(O)c(O)c2)[C@@H](OC(=O)c2cc(O)c(O)c(O)c2)[C@@H](OC(=O)c2cc(O)c(O)c(O)c2)[C@@H]1OC(=O)c1cc(O)c(O)c(O)c1)c1cc(O)c(O)c(O)c1` (stereo not given in full), > 30 µM (inactive).
The same measure, in the same setting: as for `CCN(CC)CCOC(=O)c1ccc(N/C=C(/C#N)c2nc(-c3ccc(OC)c(OC)c3)cs2)cc1`, the figure is > 30 µM (inactive).
For `C#CCOCCOCCOCCNc1nc(N2CCN(C(=O)[C@H]([C@@H](C)CC)n3cc([C@@H](N)CC(C)C)nn3)CC2)nc(N2CCN(C(=O)[C@H](Cc3cc4ccccc4[nH]3)n3cc([C@@H](N)CC(C)C)nn3)CC2)n1`, the EC50 was 7.74 µM.
With `CNC[C@H](CC1CCCCC1)NC[C@H](Cc1ccccc1)NCCC12CC3CC(CC(C3)C1)C2`, the EC50 was 4.93 µM.
On the same count and under the same terms, with `Cc1sc(NC(=O)c2ccccc2)c(C(c2ccccn2)N2CCN(CCO)CC2)c1C` (stereo not given) the figure was > 30 µM (inactive); with `CCCOc1ccc2c(c1)C(=NN=C(N)N)c1cc(OCCC)ccc1-2`, 4.59 µM.
Still for that read-out and setting: with `C#CCOCCOCCOCCNc1nc(N2CCN(C(=O)[C@H]([C@@H](C)CC)n3cc([C@@H](N)Cc4ccc(O)cc4)nn3)CC2)nc(N2CCN(C(=O)[C@H](CCCCN)n3cc([C@@H](N)CC(C)C)nn3)CC2)n1` the figure was 10.1 µM; with `N=C(N)SCc1cn(-c2ccccc2)nc1-c1ccc(Br)cc1`, 3.13 µM.
On the same count and under the same terms, as for `COc1ccc(-c2csc(N(CCCN(C)C)C(=O)c3ccccc3Cl)n2)cc1`, the figure is > 30 µM (inactive); as for `C#CCOCCOCCOCCNc1nc(N2CCN(C(=O)C([C@@H](C)CC)n3cc(C(N)COC(=O)C(F)(F)F)nn3)CC2)nc(N2CCN(C(=O)[C@H](CCCCN)n3cc(C(N)[C@H](C)CC)nn3)CC2)n1` (stereo not given in full), > 30 µM (inactive); as for `CCCCCCCCCCOC(=O)Cn1c(COc2ccccc2)[n+](C)c2ccccc21`, 2.6 µM.
Consider `CCCSc1ncnc2sc(C)c(C)c12`, for which the EC50 was > 30 µM (inactive).
As to `CCc1ccc(-c2nn(-c3ccccc3)cc2CSC(=N)N)cc1`, the concentration for a half-maximal effect (EC50) is 5.12 µM.
As for `COc1ccc(-c2cc(C#N)nc(N3CCNCC3)n2)cc1`, the EC50 was > 30 µM (inactive).
On the same count and under the same terms, with `Cc1ccc(-c2csc(NC(=O)C[n+]3cc(-c4ccc(C)cc4)n4c3CCC4)n2)cc1` the figure was > 30 µM (inactive).
Same read-out and setting: as for `COc1ccc(Cn2cc3c(-c4ccc(F)cc4)nnc-3c3cc(OC)c(OC)cc32)cc1`, the figure is 1.15 µM.

Still in this experiment, the particulars now being: MEK5-MEKK2 PB1 binding, measured here: Ki from binding competition.
As usually defined, the Ki is a dissociation constant, usually derived from enzyme kinetics or from competition with a known ligand. For the compound `CCCCn1c(O)c(/C=C/C=C/C=Nc2ccccc2)sc1=S`, the inhibition constant (Ki) was found to be 1000 nM.
Same read-out and setting: with `CCC(/C=C1\Sc2ccc(OC)cc2N1CCO)=C\c1sc2ccc(OC)cc2[n+]1CCO` the figure was 780 nM.
As to `Cc1cc2ccccc2n1CCNC(=O)c1cccs1`, the Ki came to 13000 nM.
Turning to `CCC(/C=C1\Sc2ccc(OC)cc2N1CC)=C\c1sc2ccc(OC)cc2[n+]1CCCS(=O)(=O)[O-]`, the Ki came to 4010 nM.
The same measure, in the same setting: as for `CN1C(=O)/C(=C\c2ccc(-c3ccccc3)o2)SC1=S`, the figure is 3140 nM.
On the same count and under the same terms, with `CCN1/C(=C/C(C)=C/c2sc3ccccc3[n+]2CC)Sc2ccccc21` the figure was 470 nM; with `Nc1ccc(N)c(C(=O)O)c1`, 3390 nM; with `CCOC(=O)C(C(=O)OCC)c1cc(Br)c2noc3c2c1C(=O)c1ccccc1-3`, 2530 nM.
On the same count and under the same terms, with `CCC(=C/c1sc2ccc3ccccc3c2[n+]1C)/C=C1\Sc2ccc3ccccc3c2N1C` the figure was 120 nM; with `COc1ccc(-n2nc3c(N)n[nH]c3cc2=O)cc1`, 1330 nM; with `CN1C(=CC=C2C=C(I)C(=O)C(I)=C2)C(C)(C)c2ccccc21`, 8200 nM.
As for `CCN(CC)CCOC(=O)c1ccc(N/C=C(/C#N)c2nc(-c3cc4ccccc4oc3=O)cs2)cc1`, the Ki was found to be 4360 nM.
